# Measurements: ChEMBL document CHEMBL3885861, “Open TG-GATES”
# Species: Rattus norvegicus
# Assay: Open TG-GATES - Regimen: Single
# Format: toxicity, organism-based, Sprague-Dawley
# Set-up: regimen Single, gender Male, age 6 weeks
# Conditions: in vivo, iv, 1000 mg/kg, route intravenous injection, dose level Middle; for APTT / Bas / Eos / Fbg / Hb / Ht / Lym / MCH / MCHC / MCV / Mono / PT / Plat / RBC / Ret / WBC: tissue Blood; for KIDNEY_L / KIDNEY_R / KIDNEY_TOTAL: tissue Kidney; for LIVER: tissue Liver; for ALP / ALT / AST / BUN / CRE / Ca / Cl / DBIL / GLC / IP / K / LDH / Na / PL / RALB / TBIL / TC / TG / TP / gamma-GTP: tissue Plasma
structure (smiles),measurement,setting,value
CC(=O)OCC1=C(C(=O)O)N2C(=O)[C@@H](NC(=O)Cc3cccs3)[C@H]2SC1 [CEPHALOTHIN],TERMINAL_BW,3 h,212.6 g
same,APTT,3 h,22.3 s
same,Bas,3 h,0%
same,Eos,3 h,0.4%
same,Fbg,3 h,266.6 mg/dL
same,Hb,3 h,13.2 g/dL
same,Ht,3 h,38.5%
same,Lym,3 h,72%
same,MCH,3 h,21.3 pg
same,MCHC,3 h,34.3%
same,MCV,3 h,62 fL
same,Mono,3 h,3.2%
same,PT,3 h,16.3 s
same,Plat,3 h,116.5 x10_4/uL
same,RBC,3 h,622 x10_4/ul
same,Ret,3 h,5.8%
same,WBC,3 h,76.3 x10_2/uL
same,KIDNEY_L,3 h,0.9 g
same,KIDNEY_R,3 h,0.9 g
same,KIDNEY_TOTAL,3 h,1.9 g
same,LIVER,3 h,10 g
same,ALP,3 h,1462.8 IU/L
same,ALT,3 h,52.4 IU/L
same,AST,3 h,101 IU/L
same,BUN,3 h,12.6 mg/dL
same,CRE,3 h,0.2 mg/dL
same,Ca,3 h,10.8 mg/dL
same,Cl,3 h,105.2 meq/L
same,DBIL,3 h,0 mg/dL
same,GLC,3 h,173 mg/dL
same,IP,3 h,8.5 mg/dL
same,K,3 h,4.3 meq/L
same,LDH,3 h,207.6 IU/L
same,Na,3 h,141.8 meq/L
same,PL,3 h,141.2 mg/dL
same,RALB,3 h,2.9 g/dL
same,TBIL,3 h,0.02 mg/dL
same,TC,3 h,68.8 mg/dL
same,TG,3 h,132.8 mg/dL
same,TP,3 h,5.2 g/dL
same,gamma-GTP,3 h,1.2 IU/L
same,TERMINAL_BW,6 h,218.3 g
same,APTT,6 h,24.1 s
same,Bas,6 h,0%
same,Eos,6 h,1%
same,Fbg,6 h,281.6 mg/dL
same,Hb,6 h,13.1 g/dL
same,Ht,6 h,38.6%
same,Lym,6 h,76.4%
same,MCH,6 h,21.1 pg
same,MCHC,6 h,34%
same,MCV,6 h,62.1 fL
same,Mono,6 h,2.4%
same,PT,6 h,16.2 s
same,Plat,6 h,135.7 x10_4/uL
same,RBC,6 h,622 x10_4/ul
same,Ret,6 h,6.3%
same,WBC,6 h,78.7 x10_2/uL
same,KIDNEY_L,6 h,1 g
same,KIDNEY_R,6 h,1 g
same,KIDNEY_TOTAL,6 h,1.9 g
same,LIVER,6 h,9.4 g
same,ALP,6 h,1381.4 IU/L
same,ALT,6 h,39.2 IU/L
same,AST,6 h,91.4 IU/L
same,BUN,6 h,12.8 mg/dL
same,CRE,6 h,0.2 mg/dL
same,Ca,6 h,10.5 mg/dL
same,Cl,6 h,106.2 meq/L
same,DBIL,6 h,0.002 mg/dL
same,GLC,6 h,175.4 mg/dL
same,IP,6 h,8.9 mg/dL
same,K,6 h,4.5 meq/L
same,LDH,6 h,176 IU/L
same,Na,6 h,141.4 meq/L
same,PL,6 h,127.8 mg/dL
same,RALB,6 h,2.8 g/dL
same,TBIL,6 h,0.018 mg/dL
same,TC,6 h,61.6 mg/dL
same,TG,6 h,115.2 mg/dL
same,TP,6 h,5.2 g/dL
same,gamma-GTP,6 h,1.2 IU/L
same,TERMINAL_BW,9 h,213.7 g
same,APTT,9 h,22.5 s
same,Bas,9 h,0%
same,Eos,9 h,1%
same,Fbg,9 h,293.2 mg/dL
same,Hb,9 h,13 g/dL
same,Ht,9 h,38.2%
same,Lym,9 h,73.4%
same,MCH,9 h,20.9 pg
same,MCHC,9 h,34%
same,MCV,9 h,61.6 fL
same,Mono,9 h,2.2%
same,PT,9 h,16.1 s
same,Plat,9 h,128.3 x10_4/uL
same,RBC,9 h,620.4 x10_4/ul
same,Ret,9 h,6.8%
same,WBC,9 h,74.6 x10_2/uL
same,KIDNEY_L,9 h,1 g
same,KIDNEY_R,9 h,1 g
same,KIDNEY_TOTAL,9 h,1.9 g
same,LIVER,9 h,8.9 g
same,ALP,9 h,1218.6 IU/L
same,ALT,9 h,33.2 IU/L
same,AST,9 h,75.4 IU/L
same,BUN,9 h,11 mg/dL
same,CRE,9 h,0.2 mg/dL
same,Ca,9 h,10.5 mg/dL
same,Cl,9 h,107.2 meq/L
same,DBIL,9 h,0 mg/dL
same,GLC,9 h,176.6 mg/dL
same,IP,9 h,9.1 mg/dL
same,K,9 h,4.5 meq/L
same,LDH,9 h,150 IU/L
same,Na,9 h,141.6 meq/L
same,PL,9 h,138.8 mg/dL
same,RALB,9 h,2.9 g/dL
same,TBIL,9 h,0.018 mg/dL
same,TC,9 h,72 mg/dL
same,TG,9 h,90.2 mg/dL
same,TP,9 h,5.4 g/dL
same,gamma-GTP,9 h,1.6 IU/L
same,TERMINAL_BW,24 h,219.2 g
same,APTT,24 h,22.5 s
same,Bas,24 h,0%
same,Eos,24 h,1%
same,Fbg,24 h,309.8 mg/dL
same,Hb,24 h,13.5 g/dL
same,Ht,24 h,39.4%
same,Lym,24 h,81.4%
same,MCH,24 h,20.7 pg
same,MCHC,24 h,34.3%
same,MCV,24 h,60.5 fL
same,Mono,24 h,2.4%
same,PT,24 h,16.3 s
same,Plat,24 h,124.3 x10_4/uL
same,RBC,24 h,651.8 x10_4/ul
same,Ret,24 h,5.1%
same,WBC,24 h,73.5 x10_2/uL
same,KIDNEY_L,24 h,1 g
same,KIDNEY_R,24 h,1 g
same,KIDNEY_TOTAL,24 h,1.9 g
same,LIVER,24 h,9.5 g
same,ALP,24 h,1371.4 IU/L
same,ALT,24 h,48 IU/L
same,AST,24 h,76.8 IU/L
same,BUN,24 h,15.8 mg/dL
same,CRE,24 h,0.2 mg/dL
same,Ca,24 h,10.6 mg/dL
same,Cl,24 h,106.8 meq/L
same,DBIL,24 h,0 mg/dL
same,GLC,24 h,190.8 mg/dL
same,IP,24 h,6.7 mg/dL
same,K,24 h,4.2 meq/L
same,LDH,24 h,146.8 IU/L
same,Na,24 h,143 meq/L
same,PL,24 h,148.8 mg/dL
same,RALB,24 h,3.1 g/dL
same,TBIL,24 h,0.012 mg/dL
same,TC,24 h,80.6 mg/dL
same,TG,24 h,79.4 mg/dL
same,TP,24 h,5.7 g/dL
same,gamma-GTP,24 h,1.6 IU/L
